Measured values published in patent publication US20230117324A1, “OXAZINE MONOACYLGLYCEROL LIPASE (MAGL) INHIBITORS” (Hoffmann-La Roche Inc., priority 2018, published 2023).

Target: T1, MAGL (Homo sapiens, UniProt Q99685)
T1 sequence (Q99685 1-303): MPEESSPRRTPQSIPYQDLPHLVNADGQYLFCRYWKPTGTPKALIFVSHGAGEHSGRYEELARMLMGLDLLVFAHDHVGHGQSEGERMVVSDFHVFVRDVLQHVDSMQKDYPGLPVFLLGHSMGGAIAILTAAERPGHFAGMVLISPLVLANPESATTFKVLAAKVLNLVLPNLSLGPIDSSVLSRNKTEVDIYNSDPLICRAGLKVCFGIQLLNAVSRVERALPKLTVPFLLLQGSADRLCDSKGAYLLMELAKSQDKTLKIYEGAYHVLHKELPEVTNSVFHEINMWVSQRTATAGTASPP
Test: MAGL inhibition, 2-AG assay (hydrolysis of 2-arachidonoylglycerol, arachidonic acid by mass spectrometry)
Type: biochemical
Details: 2-AG assay (footnote [b])
In short: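 Hydrolysis of 8 μM 2-arachidonoylglycerol by […] was run for 30 min at RT after a 15 min compound preincubation, in Tris/EDTA/Tween buffer. Test compounds spanned […]. The product was measured by online SPE-MS/MS (transitions 303.1→259.1 and 311.1→267.0), and activity was derived from the arachidonic acid/d8-arachidonic acid signal ratio.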

SMILES	IC50 [nM]
CC(OC1CN(c2ccc(C3CN(C(=O)N4CC[C@@H]5OCC(=O)N[C@@H]5C4)C3)cc2)C1)C(F)(F)F (single isomer, unassigned) [Example 161, (4aR,8aS)-6-[3-[4-[3-[(1R or 1S)-2,2,2-Trifluoro-1-methyl-ethoxy]azetidin-1-yl]phenyl]azetidine-1-carbonyl]-4,4a,5,7,8,8a-hexahydropyrido[4,3-b][1,4]oxazin-3-one]	4
O=C1CO[C@H]2CCN(C(=O)N3CC(c4ccc(-c5ccc(F)cc5F)cc4)C3)C[C@H]2N1 [Example 126, (4aR,8aS)-6-(3-(2′,4′-Difluoro-[1,1′-biphenyl]-4-yl)azetidine-1-carbonyl)hexahydro-2H-pyrido[4,3-b][1,4]oxazin-3(4H)-one]	0.3
Cn1ncc2cc(C3CN(C(=O)N4CC[C@@H]5OCC(=O)N[C@@H]5C4)C3)ccc21 [Example 241, (4aR,8aS)-6-(3-(1-Methyl-1H-indazol-5-yl)azetidine-1-carbonyl)hexahydro-2H-pyrido[4,3-b][1,4]oxazin-3(4H)-one]	245
O=C1CO[C@H]2CCN(C(=O)N3CC(c4ccc(N5CCC(C(F)(F)F)C5)cn4)C3)C[C@H]2N1 (single isomer, unassigned) [Example 271, (4aR,8aS)-6-(3-(5-((R or S)-3-(Trifluoromethyl)pyrrolidin-1-yl)pyridin-2-yl)azetidine-1-carbonyl)hexahydro-2H-pyrido[4,3-b][1,4]oxazin-3(4H)-one]	22
CC(C)(C)Oc1ccc(C2CN(C(=O)N3CC[C@@H]4OCC(=O)N[C@@H]4C3)C2)cc1 [Example 262, (4aR,8aS)-6-[3-(4-tert-Butoxyphenyl)azetidine-1-carbonyl]-4,4a,5,7,8,8a-hexahydropyrido[4,3-b][1,4]oxazin-3-one]	1
O=C1CO[C@H]2CCN(C(=O)N3CC(F)(c4ccc(Br)cc4)C3)C[C@H]2N1 [Example 122, (4aR,8aS)-6-(3-(4-Bromophenyl)-3-fluoroazetidine-1-carbonyl)hexahydro-2H-pyrido[4,3-b][1,4]oxazin-3(4H)-one]	90
O=C1CO[C@H]2CCN(C(=O)N3CC(c4ccc(C5CCCOC5)cc4)C3)C[C@H]2N1 (stereo partly drawn) [Example 276, (4aR,8aS)-6-[3-(4-Tetrahydropyran-3-ylphenyl)azetidine-1-carbonyl]-4,4a,5,7,8,8a-hexahydropyrido[4,3-b][1,4]oxazin-3-one]	4
COC1CN(c2ccc(C3CN(C(=O)N4CC[C@@H]5OCC(=O)N[C@@H]5C4)C3)cc2)C1 [Example 128, (4aR,8aS)-6-(3-(4-(3-Methoxyazetidin-1-yl)phenyl)azetidine-1-carbonyl)hexahydro-2H-pyrido[4,3-b][1,4]oxazin-3(4H)-one]	45
O=C1CO[C@H]2CCN(C(=O)N3CC(c4ccc(OC(F)(F)F)cc4F)C3)C[C@H]2N1 [Example 182, (4aR,8aS)-6-(3-(2-Fluoro-4-(trifluoromethoxy)phenyl)azetidine-1-carbonyl)hexahydro-2H-pyrido[4,3-b][1,4]oxazin-3(4H)-one]	8
O=C1CO[C@H]2CCN(C(=O)N3CCC(c4ccccc4)CC3)C[C@H]2N1 [Example 186, (4aR,8aS)-6-(4-Phenylpiperidine-1-carbonyl)hexahydro-2H-pyrido[4,3-b][1,4]oxazin-3(4H)-one]	1000
COc1cc(C2CN(C(=O)N3CC[C@@H]4OCC(=O)N[C@@H]4C3)C2)ccc1C [Example 250, (4aR,8aS)-6-[3-(3-Methoxy-4-methyl-phenyl)azetidine-1-carbonyl]-4,4a,5,7,8,8a-hexahydropyrido[4,3-b][1,4]oxazin-3-one]	106
CC(Oc1ccc(C(F)(F)F)cc1Cl)C1CN(C(=O)N2CC[C@@H]3OCC(=O)N[C@@H]3C2)C1 (single isomer, unassigned) [Example 76, (4aR,8aS)-6-(3-(S or R)-(1-(2-Chloro-4-(trifluoromethyl)phenoxy)ethyl)azetidine-1-carbonyl)hexahydro-2H-pyrido[4,3-b][1,4]oxazin-3(4H)-one]	1
CC1(C)COc2cc(C3CN(C(=O)N4CC[C@@H]5OCC(=O)N[C@@H]5C4)C3)ccc21 [Example 232, (4aR,8aS)-6-(3-(3,3-Dimethyl-2,3-dihydrobenzofuran-6-yl)azetidine-1-carbonyl)hexahydro-2H-pyrido[4,3-b][1,4]oxazin-3(4H)-one]	7
O=C1CO[C@H]2CCN(C(=O)N3CCC(c4cccc(Br)c4)C3)C[C@H]2N1 (single isomer, unassigned) [Example 229, (4aR,8aS)-6-[(3R or S)-3-(3-Bromophenyl)pyrrolidine-1-carbonyl]-4,4a,5,7,8,8a-hexahydropyrido[4,3-b][1,4]oxazin-3-one]	229

Continued, values first:

IC50 [nM]	SMILES
0.1	O=C1CO[C@H]2CCN(C(=O)N3CC(c4ccc(-c5ccc(F)cc5Cl)cc4)C3)C[C@H]2N1 [Example 134, (4aR,8aS)-6-[3-[4-(2-Chloro-4-fluoro-phenyl)phenyl]azetidine-1-carbonyl]-4,4a,5,7,8,8a-hexahydropyrido[4,3-b][1,4]oxazin-3-one]
27	CC(Oc1ccc(C(F)(F)F)cc1)C1CN(C(=O)N2CC[C@@H]3OCC(=O)N[C@@H]3C2)C1 (single isomer, unassigned) [Example 99, (4aR,8aS)-6-(3-((S or R)-1-(4-(Trifluoromethyl)phenoxy)ethyl)azetidine-1-carbonyl)hexahydro-2H-pyrido[4,3-b][1,4]oxazin-3(4H)-one]
2.2	COc1ccc(C(c2ccc(F)cc2)C2CCN(C(=O)N3CC[C@@H]4OCC(=O)N[C@@H]4C3)CC2)cc1OC (single isomer, unassigned) [Example 88, (4aR,8aS)-6-(4-((R or S)-(3,4-Dimethoxyphenyl)(4-fluorophenyl)methyl)piperidine-1-carbonyl)hexahydro-2H-pyrido[4,3-b][1,4]oxazin-3(4H)-one]
2	COc1cc(CC(F)(F)F)ccc1C1CN(C(=O)N2CC[C@@H]3OCC(=O)N[C@@H]3C2)C1 [Example 277, (4aR,8aS)-6-[3-[2-Methoxy-4-(2,2,2-trifluoroethyl)phenyl]azetidine-1-carbonyl]-4,4a,5,7,8,8a-hexahydropyrido[4,3-b][1,4]oxazin-3-one]
361	N#CC(c1ccc(F)cc1)C1CCN(C(=O)N2CC[C@@H]3OCC(=O)N[C@@H]3C2)CC1 (stereo partly drawn) [Example 48, 2-(4-Fluorophenyl)-2-(1-((4aR,8aS)-3-oxooctahydro-2H-pyrido[4,3-b][1,4]oxazine-6-carbonyl)piperidin-4-yl)acetonitrile]
92	CC(OC1CN(C(=O)N2CC[C@@H]3OCC(=O)N[C@@H]3C2)C1)c1ccc(F)cc1Cl (single isomer, unassigned) [Example 116, (4aR,8aS)-6-[3-(S or R)-]1-(2-Chloro-4-fluoro-phenyl)ethoxy]azetidine-1-carbonyl]-4,4a,5,7,8,8a-hexahydropyrido[4,3-b][1,4]oxazin-3-one]

Target: T2, MAGL (recombinant wild-type) (Homo sapiens, UniProt Q99685)
T2 sequence (Q99685 1-303): T1 sequence (Q99685 1-303)
Test: MAGL inhibition, 4-NPA assay (hydrolysis of 4-nitrophenylacetate, absorbance at 405 nm)
Type: biochemical
Details: 4-NPA assay (footnote [a]: values not marked [b])
Experimental: Compounds were profiled for MAGL inhibitory activity by measuring the enzymatic activity of MAGL by following the hydrolysis of 4-nitrophenylacetate resulting in 4-nitrophenol, which absorbs at 405-412 nm (G. G. Muccioli, G. Labar, D. M. Lambert, Chem. Bio. Chem. 2008, 9, 2704-2710). This assay is hereinafter abbreviated “4-NPA assay”.
The assay was carried out in 384 well assay plates (black with clear bottom, non-binding surface treated, Corning Ref. 3655) in a total volume of 40 μL. Compound dilutions were made in 100% DMSO (VWR Chemicals 23500.297) in a polypropylene plate in 3-fold dilution steps to give a final concentration range in the assay from 25 μM to 1.7 nM. 1 μL compound dilutions (100% DMSO) were added to 19 μL MAGL (recombinant wild-type) in assay buffer (50 mM TRIS (GIBCO, 15567-027), 1 mM EDTA (Fluka, 03690-100 mL)). The plate was shaked for 1 min at 2000 rpm (Variomag Teleshake) and then incubated for 15 min at RT. To start the reaction, 20 μL 4-Nitrophenlyacetate (Sigma N-8130) in assay buffer with 6% EtOH was added. The final concentrations in the assay were 1 nM MAGL and 300 μM 4-Nitrophenylacetate. After shaking (1 min, 2000 rpm) and 5 min incubation at RT, the absorbance at 405 nm was measured for a first time (Molecular Devices, SpectraMax Paradigm). A second measurement was then done after incubation for 80 min at RT. From the two measurements, the slope was calculated by subtracting the first from the second measurement.

IC50 [nM]	SMILES
5	CC(c1ccc(C(F)(F)F)cc1)C1CCN(C(=O)N2CC[C@@H]3OCC(=O)N[C@@H]3C2)CC1 (mixture of isomers) [Example 27, (4aR,8aS)-6-(4-(1-(4-(Trifluoromethyl)phenyl)ethyl)piperidine-1-carbonyl)hexahydro-2H-pyrido[4,3-b][1,4]oxazin-3(4H)-one]
644	O=C1CO[C@H]2CCN(C(=O)N3CCC(c4ccc(OC(F)(F)F)cn4)CC3)C[C@H]2N1 (single isomer, unassigned) [Example 38, (+) or (−)-cis-6-(4-(5-(Trifluoromethoxy)pyridin-2-yl)piperidine-1-carbonyl)hexahydro-2H-pyrido[4,3-b][1,4]oxazin-3(4H)-one]
88	O=C1CO[C@@H]2CCN(C(=O)N3CCN(C(c4ccc(F)cc4)c4ccc(F)cc4)CC3)C[C@@H]2N1 (stereo in doubt) [Example 13, (−)-(cis)-6-(4-(bis(4-Fluorophenyl)methyl)piperazine-1-carbonyl)hexahydro-2H-pyrido[4,3-b][1,4]oxazin-3(4H)-one]
